Measured values published in patent US20180043059A1, “3D Ti-6Al-4V Structures with Hydrogel Matrix” (priority 2016, published 2018).
Entries after “also recorded” stand apart in the source; their conditions may differ. Read-outs that look alike come from different tables or passages of the source.

Assays:
[1] = tested on: MC3T3-E1 pre-osteoblast cells
HUVECs [2] = assay: Combinatorial dose of DFM and D(+) glucose, MTS viability, HUVECs; format: cell-based, Human; details: 5 mM glucose, 24 hours
Experimental: (§1) Cells that undergo hypoxia mimetic stress mediated by Hif-1α have been reported to increase their metabolic demands. To test how metabolic demands change in cells exposed to DFM, both HUVECs and MC3T3-E1 cells were exposed to 3.2 μM DFM, 5 mM D(+) glucose and a combination of 3.2 μM DFM+5 mM D(+) glucose for 24 hours. A negative control consisted of both cell types without treatment. The viability of cells was determined by MTS viability assay. The purpose of this approach is to determine whether D(+) glucose can be used as an additive in the hydrogel matrix to improve wound healing and help drive vascularization and osteogenesis process.

MC3T3-E1 cells [3] = assay: Combinatorial dose of DFM and D(+) glucose, MTS viability, MC3T3-E1; format: cell-based, mouse; details: 5 mM glucose, 24 hours
Experimental: as §1

HUVECs [4] = details: cited from earlier work
HUVECs [5] = assay: Induction of angiogenesis (capillary formation) in Matrigel and in foams with gel; format: cell-based, Human
Experimental: It has been previously reported that MC3T3-E1 pre-osteoblast cells undergo differentiation and proliferation when grown in porous foams in glutamine containing media. It has been extensively reported that endothelial cells are able to form capillaries in gels when exposed to DFM [28]. In this experiment, a live angiogenesis monitoring experiment is performed in order to analyze capillarity maturation and cell survival. This analysis is achieved by staining HUVECs with PHK26 Red Fluorescent Dye (Sigma) and MC3T3-E1 cells with PKH67 Green fluorescent dye (Sigma). Both dyes stain cell membranes in an unspecific way, while maintaining cellular viability for an extended period of time. MC3T3-E1 cells are grown in foams as described above, but under hypoxic conditions (3.2 μM DFM). The Ti-6Al-4V foams are pre-incubated with pre-osteoblasts for a total of 7 days, with a negative hypoxia control being cells without any DFM. The cells grown on the foams and gel are monitored throughout the duration of this experiment. The foams are removed from the wells and placed in a 12 well plate and Matrigel® (Corning Life Sciences) will be added until the foam is completely covered. In order to observe microcapillarity formation upon exposure of HUVECs to DFM, the manufacturer specifications are followed. Briefly, Matrigel® is thawed according to specifications (4° C. overnight) and added to a 24 well cell culture plate and allowed to gelate also according to specifications (30-60 minutes at 37° C.). […] The cell suspension is incubated at 37° C., 5% CO2 for 16 to 18 hours on the Matrigel coated plate for 16-18 hours. The formation of microcapillaries is measured by confocal microscopy.

MC3T3-E1 cells [6] = assay: Alizarin Red S (ARS) mineralization assay; format: cell-based, mouse
Excerpt: Because it is expected that pre-osteoblasts differentiate into osteoblasts under a hypoxic condition, cells should mineralize calcium in the ECM. The study of mineralization of ECM can be viewed as a measure or potential for bone formation. In this regard, Alizarin Red Assay (ARS) (Sigma-Aldrich) is used qualitatively and quantitatively to indicate the presence of calcium in the matrix. […] The negative control for this experiment is cells grown in 3D printed foams in complete media with no added glutamate. After incubation, the samples are washed carefully with PBS without disturbing the cell layer and fixed with 4% paraformaldehyde for 30 minutes. The 3D foam structures were then stained with alizarin red (pH˜4.1) in the dark and at room temperature for 30 minutes. Samples are qualitatively studied via light microscope after rinsing with PBS. The calcium nodules should appear red. To conduct quantitative analysis, 10% cetyl pyridinium chloride will be added to remove the alizarin red stain. The absorbance of the solution is measured at 570 nm OD with a spectrophotometric microplate reader.

Hif-1α = assay: Western blot analysis of Hif-1α in HUVECs exposed to DFM; format: cell-based, Human
Experimental: To further quantify the expression of specific proteins, a western blot analysis is performed for Hif-1α and VEGF165. The western blot analysis was made using the cell lysate previously described. A Sodium Dodecyl Sulfate-Polyacrylamide Gel Electrophoresis (SDS-PAGE) was made (7.5% acrylamide for Hif-1α (93 kDa) and 12% acrylamide for VEGF165 (38 kDa)). The separated proteins are then transferred to a PVDF membrane. The Hif-1α antibody at a 1:1,000 dilution in 1% BSA in 1×TBST buffer was incubated for one hour at room temperature, followed by three 10 min washes with TBST. A secondary anti-rabbit IgG HRP conjugated antibody was incubated for 30 minutes at room temperature, followed also by subsequent washes with TB ST.

HUVECs [7] = assay: Total protein content (Bradford); format: cell-based, Human; details: endothelial cells exposed to DFM
Experimental: Cells are grown for 6 h, 24 h and 48 h in the presence of DFM at the previously specified 1:5 dilutions. After the desired time periods they are washed with cold 1×PBS and lysed with Radioimmunoprecipitation (RIPA) protein lysis buffer (0.2% Triton X-100+protease inhibitor cocktail) for 30 min in an ice bath. The total protein content in the cells is estimated using the Bradford spectrophotometric protein assay. Briefly, 10 μL of the cell lysate will be mixed with 100 μL of Bradford Reagent (Sigma) and re-suspended to homogenize the solution on a 96 well plate. The absorbance will be measured at 595 nm. A standard plot of absorbance as a function of bovine serum albumin (BSA) concentration will be obtained to determine the concentration value of the experimental and control samples.

MC3T3-E1 cells [8] = assay: Fluorescent microscopy of pre-osteoblasts grown in Ti-6Al-4V foam under DFM; format: cell-based, mouse; details: 3.2 μM DFM (low concentration), 21 days
Experimental: Pre-osteoblasts seeded on foam structures were cultured for 7 days to test for similar cell behavior as reported by Nune et al. Cells were seeded at 200,000 cells/well in a 12 well plate, 1 mL total media volume and then stained with Hoechst 33342 cell nuclei dye. A second experiment was performed once the appropriate concentration of DFM was selected. Pre-osteoblasts are seeded at the previously described concentration in the same conditions but exposed to 3.2 μM DFM. Proliferation is observed after 21 days exposure. A second stain is performed with Vybrant® CFDA SE Cell Tracer Kit to visually determine the viability of cells without disturbing the layer of cells grown in the foams. Because the scaffold is solid metal, light cannot be transmitted through it if fully dense. However, due to the foam nature of the scaffold, light may be transmitted though the medium and a visible image can be obtained if the metal section is thin enough. Despite the fact that a thin section makes fluorescent microscopy feasible, since the scaffold is 3D, focus is lost in the z axis and there is a lack of clarity for morphological details. Improvements on microscopy can be done by using Confocal Microscopy instead of Fluorescent Microscopy in order to view in more detail cellular morphology and microcapillary formation. […]

MC3T3-E1 cells [9] = tested on: MC3T3-E1 cells

**Q.** Which MTS metabolism [1] does the source give for CoCl2 here?
**A.** Its MTS metabolism is “greatly increases”.

**Q.** What about the “cellular metabolism (MTS) across drug concentrations” value [1] of the same compound?
**A.** Its value is “almost no variation in cellular metabolism”.

**Q.** What about the “viability at lower concentrations (summary)” value [1] of the same compound?
**A.** Its value is “E1 cells exposed to DFM. Viability increases”.

**Q.** What does the source list for O=C[C@H](O)[C@@H](O)[C@H](O)[C@H](O)CO [D(+) glucose]?
**A.** viability response to additional D(+) glucose (HUVECs [2]; compared with MC3T3-E1, listed as D(+) Glucose): Augments Viability Faster; viability response to additional D(+) glucose (HUVECs [2]; compared with MC3T3-E1, listed as glucose): more positive response; viability response to additional D(+) glucose (MC3T3-E1 cells [3]): not

**Q.** For CC(=O)N(O)CCCCCNC(=O)CCC(=O)N(O)CCCCCNC(=O)CCC(=O)N(O)CCCCCN.CS(=O)(=O)O [DFM, Deferoxamine Mesylate], which “DFM concentration that can stimulate a survival response” value (HUVECs [4]; previous reports) is on record?
**A.** Its value is ~10 µM.

**Q.** What about the “DFM concentration at which HUVECs undergo angiogenesis” value (HUVECs [4]; previously reported) of the same compound?
**A.** Its value is “approximately 10 μM”.

**Q.** What about the “maintenance of capillary structure” value (HUVECs [5]; HUVECs exposed to 2 mM DFM in Matrigel) of the same compound?
**A.** The value was “maintain their structure for an extended period of time”.

**Q.** What about the “capillary formation in Matrigel” value (HUVECs [5]; HUVECs exposed to 2 mM DFM, 18 hour period, not apparent in control without DFM) of the same compound?
**A.** Its value is “readily formed capillaries; also recorded: HUVECs readily undergo migration to form”.

**Q.** What about the “vascular structure formation in foams with gel” value (HUVECs [5]; Ti-6Al-4V foam + Matrigel with pre-incubated MC3T3-E1, HUVECs treated with 2 mM DFM, FIG. 7) of the same compound?
**A.** Its value is “HUVECs readily undergo migration to form”.

**Q.** And the “cellular production of hydroxyapatite, cells grown in foams” value (MC3T3-E1 cells [6]; Ti-6Al-4V foams, 3.2 μM DFM)?
**A.** The value was “enhanced; also recorded: DFM enhances the cellular production of”.

**Q.** What about the “synthesis levels of hydroxyapatite versus control” value (MC3T3-E1 cells [6]; foams, 3.2 μM DFM, 14 days) of the same compound?
**A.** Its value is “increase on par in both settings”.

**Q.** And the “amount of cellular hydroxyapatite versus control” value (MC3T3-E1 cells [6]; foams, 3.2 μM DFM, 21 days, FIG. 6)?
**A.** Its value is “dramatically increases”.

**Q.** What about the “amount of hydroxyapatite versus control” value (MC3T3-E1 cells [6]; foams, 3.2 μM DFM, initially (7 days)) of the same compound?
**A.** The value was “comparatively similar amounts of hydroxyapatite to control cells”.

**Q.** What about the “production of mineralized calcium / hydroxyapatite, cells grown in plates” value (MC3T3-E1 cells [6]; plates) of the same compound?
**A.** The value was “increases the production of mineralized calcium; also recorded: DFM enhances the cellular production of”.

**Q.** And the “expression of mineralized calcium (ARS)” value (MC3T3-E1 cells [6]; plates, 640 nM DFM, 21 days, FIG. 5)?
**A.** Its value is “highest expression of mineralized calcium”.

**Q.** And the “expression of hydroxyapatite compared to control cells” value (MC3T3-E1 cells [6]; plates, 640 nM DFM, every instance (7, 14, 21 days))?
**A.** Its value is “always in greater amount”.

**Q.** What about the “total intracellular Hif-1α bands” value (Hif-1α; 48 hours exposure) of the same compound?
**A.** Its value is “still producing definitive bands”.

**Q.** What about the “Hif-1α levels with increasing DFM concentration (summary)” value (Hif-1α; HUVECs) of the same compound?
**A.** The value was “Hif-1α levels increased with increasing DFM”.

**Q.** What about the Hif-1α expression (Hif-1α; high doses (2 mM) vs normoxia) of the same compound?
**A.** Its Hif-1α expression is “notably increase”.

**Q.** And the “cellular metabolism (MTS) across drug concentrations” value ([1]; 24 hours exposure)?
**A.** The value was “almost no variation in cellular metabolism”.

**Q.** And the MTS metabolism ([1]; exposure equal or longer than 72 hours)?
**A.** The MTS metabolism was “greatly increases”.

**Q.** And the “viability at lower concentrations (summary)” value ([1]; lower concentrations)?
**A.** The value was “E1 cells exposed to DFM. Viability increases”.

**Q.** What about the “cellular viability (summary)” value ([1]; mouse) of the same compound?
**A.** Its value is “Cellular viability does not decrease in MC3T3-”.

**Q.** And the “levels of total protein synthesized” value (HUVECs [7])?
**A.** Its value is “No obvious changes”.

**Q.** What about the “proliferation of pre-osteoblasts in the foam (Hoechst 33342 staining)” value (MC3T3-E1 cells [8]) of the same compound?
**A.** Its value is “proliferating”.

**Q.** And the “cellular proliferation (cell count)” value (MC3T3-E1 cells [9]; 24 hour exposure, remaining dilutions, compared to unexposed control)?
**A.** The value was “constant cell population numbers, with a slight decrease in numbers”.

**Q.** And the “cellular proliferation (cell count)” value (MC3T3-E1 cells [9]; lowest concentrations (3.2 μM and 640 nM))?
**A.** Its value is “observable increase in proliferation”.
